Data from patent US9688695B2, “Imidazothiadiazole and imidazopyrazine derivatives as protease activated receptor 4 (PAR4) inhibitors for treating platelet aggregation” (BRISTOL-MYERS SQUIBB COMPANY, priority 2012, dated 2017).
pEC50: −log10 of the molar value. Counter-ions that a name gives are not always drawn.

Target: PAR4 (Homo sapiens (Human), UniProt Q96RI0)
Assay: FLIPR assay in PAR4-expressing HEK293 cells (PAR4 antagonist activity, calcium mobilization)
Type: cell-based
In short: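 HEK293 EBNA cells stably expressing human PAR4 (also endogenous PAR1) preincubated 30 min at room temperature with compound in HBSS/10 mM HEPES, 0.67% DMSO final. PAR4 agonist peptide then added and intracellular calcium mobilization monitored by fluorescence.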

[1] = H-Ala-Phe(4-F)-Pro-Gly-Trp-Leu-Val-Lys-Asn-Gly-NH2-induced calcium mobilization

PAR4, sequence (Q96RI0 18-385): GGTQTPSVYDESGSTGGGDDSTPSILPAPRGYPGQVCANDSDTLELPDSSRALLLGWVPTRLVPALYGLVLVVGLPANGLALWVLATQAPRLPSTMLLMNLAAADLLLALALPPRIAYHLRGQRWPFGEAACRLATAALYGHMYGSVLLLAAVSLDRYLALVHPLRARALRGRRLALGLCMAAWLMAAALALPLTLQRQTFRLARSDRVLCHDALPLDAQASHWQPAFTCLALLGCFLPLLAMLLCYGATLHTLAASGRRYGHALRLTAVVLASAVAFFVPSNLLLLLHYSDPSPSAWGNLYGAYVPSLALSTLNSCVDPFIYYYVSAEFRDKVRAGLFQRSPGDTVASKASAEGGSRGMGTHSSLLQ

Row | Compound | pEC50 [1] | pEC50 (H-Ala-Phe(4-F)-[…]NH2-induced calcium mobilization)
1 | COc1cc(OCc2nc(-c3ccc(C(=O)N(C)C)cc3)sc2C)c2cc(-c3cn4nc(C)ccc4n3)oc2c1 [Example 225] | 9.27 | –
2 | COC(=O)c1ccc(-c2nc(COc3cc(OC)cc4oc(-c5cn6nc(OC)sc6n5)cc34)cs2)cc1 [Example 37, Methyl 4-(4-(((6-methoxy-2-(2-methoxyimidazo[2,1-b][1,3,4]thiadiazol-6-yl)benzofuran-4-yl)oxy)methyl)thiazol-2-yl)benzoate] | 9.35 | –
3 | COc1cc(OCc2csc(-c3ccccc3Cl)n2)c2cc(-c3cn4nc(OC)sc4n3)oc2c1 [Example 16] | 8.47 | –
4 | COc1cc(OCc2csc(-c3cnco3)n2)c2cc(-c3cn4nc(OC)sc4n3)oc2c1 [Example 117, 5-(4-(((6-methoxy-2-(2-methoxyimidazo[2,1-b][1,3,4]thiadiazol-6-yl)benzofuran-4-yl)oxy)methyl)thiazol-2-yl)oxazole] | 9.37 | –
5 | COc1cc(OCc2csc(-c3ccc(C(=O)N4CC(OC)C4)cc3)n2)c2cc(-c3cn4nc(OC)sc4n3)oc2c1 [Example 294] | 9.40 | –
6 | COc1cc(OCc2csc(CCC(F)(F)F)n2)c2cc(-c3cn4nc(OC)sc4n3)oc2c1 [Example 58] | 9.48 | –
7 | COc1cc(OCc2csc(C3(F)CCOCC3)n2)c2cc(-c3cn4nc(C)ccc4n3)oc2c1 [Example 212, 2-(4-Fluorotetrahydro-2H-pyran-4-yl)-4-(((6-methoxy-2-(6-methylimidazo[1,2-b]pyridazin-2-yl)benzofuran-4-yl)oxy)methyl)thiazole] | 9.54 | –
8 | COc1cc(OCc2csc(C3(c4cccc(Cl)c4)CCOC3)n2)c2cc(-c3cn4nc(OC)sc4n3)oc2c1 (stereo not shown) [Example 165, 6-(4-((2-(3-(3-Chlorophenyl)tetrahydrofuran-3-yl)thiazol-4-yl)methoxy)-6-methoxybenzofuran-2-yl)-2-methoxyimidazo[2,1-b][1,3,4]thiadiazole] | 8.96 | –
9 | COc1cc(OCc2csc(C(C)(O)C3CCCCC3)n2)c2cc(-c3cn4nc(OC)sc4n3)oc2c1 (stereo not shown) [Example 142] | 9.51 | –
10 | CCc1sc(N2CCOCC2)nc1COc1cc(OC)cc2oc(-c3cn4nc(OC)sc4n3)cc12 [Example 105, 4-(5-Ethyl-4-(((6-methoxy-2-(2-methoxyimidazo[2,1-b][1,3,4]thiadiazol-6-yl)benzofuran-4-yl)oxy)methyl)thiazol-2-yl)morpholine] | 9.49 | –
11 | COc1cc(OCc2csc(-c3ccc(C(=O)NCCO)cc3)n2)c2cc(-c3cn4nc(OC)sc4n3)oc2c1 [Example 293] | 9.14 | –
12 | COc1cc(OCc2csc(C3(c4ccc(Cl)cc4)CCOC3)n2)c2cc(-c3cn4nc(C)ccc4n3)oc2c1 (stereo not shown) [Example 241] | 8.92 | –
13 | COc1cc(OCc2csc(C3(N)CCOCC3)n2)c2cc(-c3cn4nc(OC)sc4n3)oc2c1 [Example 172, 4-(4-(((6-Methoxy-2-(2-methoxyimidazo[2,1-b][1,3,4]thiadiazol-6-yl)benzofuran-4-yl)oxy)methyl)thiazol-2-yl)tetrahydro-2H-pyran-4-amine, HCl] | 9.03 | –
14 | COc1cc(OCc2csc(-c3ccccc3OC)n2)c2cc(-c3cn4nc(OC)sc4n3)oc2c1 [Example 19] | 9.00 | –
15 | COc1cc(OCc2csc(N3CCC(F)(F)CC3)n2)c2cc(-c3cn4nc(OC)sc4n3)oc2c1 [Example 31] | 9.23 | –
16 | COc1nn2cc(-c3cc4c(OCc5csc(C6(F)CCOCC6)n5)cc(Cl)cc4o3)nc2s1 [Example 190] | 9.33 | –
17 | CCN(C(=O)c1ccc(-c2nc(COc3cc(OC)cc4oc(-c5cn6nc(OC)sc6n5)cc34)cs2)cc1)C1CC1 [Example 299] | 9.26 | –
18 | COc1cc(OCc2csc(C3(c4ccccc4F)CCOC3)n2)c2cc(-c3cn4nc(OC)sc4n3)oc2c1 (stereo not shown) [Example 166, 6-(4-((2-(3-(2-Fluorophenyl)tetrahydrofuran-3-yl)thiazol-4-yl)methoxy)-6-methoxybenzofuran-2-yl)-2-methoxyimidazo[2,1-b][1,3,4]thiadiazole] | 9.01 | –
19 | COc1cc(OCc2csc(C3(O)CCN(C(=O)c4ccccc4)CC3)n2)c2cc(-c3cn4nc(OC)sc4n3)oc2c1 [Example 130, (4-Hydroxy-4-(4-(((6-methoxy-2-(2-methoxyimidazo[2,1-b][1,3,4]thiadiazol-6-yl)benzofuran-4-yl)oxy)methyl)thiazol-2-yl)piperidin-1-yl)(phenyl)methanone] | 9.40 | –
20 | COc1nn2cc(-c3cc4c(OCc5csc(-c6ccccc6)n5)cccc4o3)nc2s1 [Example 191, 2-Methoxy-6-(4-((2-phenylthiazol-4-yl)methoxy)benzofuran-2-yl)imidazo[2,1-b][1,3,4]thiadiazole] | 8.59 | –
21 | COc1cc(OCc2csc(N3CCN(S(C)(=O)=O)CC3)n2)c2cc(-c3cn4nc(C)ccc4n3)oc2c1 [Example 236] | 8.72 | –
22 | COc1nn2cc(-c3cc4c(OCc5csc(-c6ccc(C(=O)N7CCCC7)cc6)n5)cc(F)cc4o3)nc2s1 [Example 183, (4-(4-(((6-Fluoro-2-(2-methoxyimidazo[2,1-b][1,3,4]thiadiazol-6-yl)benzofuran-4-yl)oxy)methyl)thiazol-2-yl)phenyl)(pyrrolidin-1-yl)methanone] | 9.44 | –
23 | COc1cc(OCc2csc(N3CCN(S(=O)(=O)c4ccc(C#N)cc4)CC3)n2)c2cc(-c3cn4nc(C)ccc4n3)oc2c1 [Example 237] | 8.46 | –

Row | Compound | pEC50 [1] | pEC50 (H-Ala-Phe(4-F)-[…]NH2-induced calcium mobilization)
24 | COc1cc(OCc2csc(Nc3cccc(C#N)c3)n2)c2cc(-c3cn4nc(C)ccc4n3)oc2c1 [Example 260] | 8.15 | –
25 | COc1cc(OCc2csc(-c3ccc(COC(C)=O)cc3)n2)c2cc(-c3cn4nc(OC)sc4n3)oc2c1 [Example 68] | 9.31 | –
26 | COc1cc(OCc2csc(Br)n2)c2cc(-c3cn4nc(OC)sc4n3)oc2c1 [Example 35] | 8.89 | –
27 | COc1cc(OCc2csc(C3(F)CCC(F)(F)CC3)n2)c2cc(-c3cn4nc(OC)sc4n3)oc2c1 [Example 136, 2-Methoxy-6-(6-methoxy-4-((2-(1,4,4-trifluorocyclohexyl)thiazol-4-yl)methoxy)benzofuran-2-yl)imidazo[2,1-b][1,3,4]thiadiazole] | 8.92 | –
28 | COc1cc(OCc2csc(C3(c4cccc(Cl)c4)CCOCC3)n2)c2cc(-c3cn4nc(C)ccc4n3)oc2c1 [Example 240] | 8.16 | –
29 | COc1cc(OCc2csc(C3(O)CCC(F)(F)CC3)n2)c2cc(-c3cn4nc(OC)sc4n3)oc2c1 [Example 135, 4,4-Difluoro-1-(4-(((6-methoxy-2-(2-methoxyimidazo[2,1-b][1,3,4]thiadiazol-6-yl)benzofuran-4-yl)oxy)methyl)thiazol-2-yl)cyclohexanol] | 9.10 | –
30 | COc1cc(OCc2csc(N3CCN(C4CCOCC4)CC3)n2)c2cc(-c3cn4nc(C)ccc4n3)oc2c1 [Example 286] | 6.96 | –
31 | COc1cc(OCc2csc(C3(O)CCOCC3)n2)c2cc(-c3cn4nc([C@H](C)F)sc4n3)oc2c1 [Example 196, (S)-4-(4-(((2-(2-(1-Fluoroethyl)imidazo[2,1-b][1,3,4]thiadiazol-6-yl)-6-methoxybenzofuran-4-yl)oxy)methyl)thiazol-2-yl)tetrahydro-2H-pyran-4-ol] | 9.34 | –
32 | COc1cc(OCc2csc(N3CCCOCC3)n2)c2cc(-c3cn4nc(C)ccc4n3)oc2c1 [Example 218] | 9.25 | –
33 | COc1cc(OCc2csc(C3=CCC4(CC3)OCCO4)n2)c2cc(-c3cn4nc(OC)sc4n3)oc2c1 [Example 127, 6-(4-((2-(1,4-Dioxaspiro-[4.5]dec-7-en-8-yl)thiazol-4-yl)methoxy)-6-methoxybenzofuran-2-yl)-2-methoxyimidazo[2,1-b][1,3,4]thiadiazole] | – | 8.80
34 | COc1cc(OCc2csc(-c3ccc4c(c3)OCO4)n2)c2cc(-c3cn4nc(OC)sc4n3)oc2c1 [Example 57] | 9.17 | –
35 | COc1cc(OC(C)c2csc(-c3ccccc3)n2)c2cc(-c3cn4nc(OC)sc4n3)oc2c1 (stereo not shown) [Example 83, 2-Methoxy-6-(6-methoxy-4-(1-(2-phenylthiazol-4-yl)ethoxy)benzofuran-2-yl)imidazo[2,1-b][1,3,4]thiadiazole] | 8.96 | –
36 | COc1cc(OCc2csc(C3(c4ccc(C)cc4)CCOC3)n2)c2cc(-c3cn4nc(OC)sc4n3)oc2c1 (stereo not shown) [Example 164, 2-Methoxy-6-(6-methoxy-4-((2-(3-(p-tolyl)tetrahydrofuran-3-yl)thiazol-4-yl)methoxy)benzofuran-2-yl)imidazo[2,1-b][1,3,4]thiadiazole] | 8.89 | –
37 | COc1cc(OCc2csc(Nc3cccc(C)c3)n2)c2cc(-c3cn4nc(C)ccc4n3)oc2c1 [Example 267] | 8.38 | –
38 | COc1cc(OCc2csc(N3CCSCC3)n2)c2cc(-c3cn4nc(C)ccc4n3)oc2c1 [Example 217] | 9.21 | –
39 | CCCN(CC)C(=O)c1ccc(-c2nc(COc3cc(OC)cc4oc(-c5cn6nc(OC)sc6n5)cc34)cs2)cc1 [Example 309] | 9.27 | –
40 | COc1cc(OCc2csc(-c3cccnc3F)n2)c2cc(-c3cn4nc(OC)sc4n3)oc2c1 [Example 78] | 9.40 | –
41 | COc1cc(OCc2csc(C3=CCOc4ccccc43)n2)c2cc(-c3cn4nc(OC)sc4n3)oc2c1 [Example 169, 6-(4-((2-(2H-Chromen-4-yl)thiazol-4-yl)methoxy)-6-methoxybenzofuran-2-yl)-2-methoxyimidazo[2,1-b][1,3,4]thiadiazole] | 8.89 | –
42 | COc1cc(OCc2csc(NCc3cccc(N(C)C)c3)n2)c2cc(-c3cn4nc(C)ccc4n3)oc2c1 [Example 269] | 8.60 | –
43 | COc1cc(OCc2csc(C(C)(O)C(F)(F)F)n2)c2cc(-c3cn4nc(OC)sc4n3)oc2c1 (stereo not shown) [Example 143] | 9.41 | –
44 | CCc1sc(N2CCOCC2)nc1COc1cc(OC)cc2oc(-c3cn4nc(C)ccc4n3)cc12 [Example 238] | 9.14 | –
45 | COc1cc(OCc2csc(C3CCN(C(=O)c4ccccc4)CC3)n2)c2cc(-c3cn4nc(OC)sc4n3)oc2c1 [Example 110, (4-(4-(((6-Methoxy-2-(2-methoxyimidazo[2,1-b][1,3,4]thiadiazol-6-yl)benzofuran-4-yl)oxy)methyl)thiazol-2-yl)piperidin-1-yl)(phenyl)methanone] | 9.11 | –
46 | COc1cc(OCc2csc(-c3ccc(C(=O)N(C)CC4CC4)cc3)n2)c2cc(-c3cn4nc(OC)sc4n3)oc2c1 [Example 314] | 9.43 | –
